# Measurements from patent publication US20050228016A1, “TETRAHYDROQUINOLINES FOR MODULATING THE EXPRESSION OF EXOGENOUS GENES VIA AN ECDYSONE RECEPTOR COMPLEX” (priority 2002, published 2005).
# Tests used:
# [1] = biological target: T1, Bombyx mori EcR (VP16-BmEcR, CVBE) (Bombyx mori, UniProt P49881); test: Z3 assay (HEK-293 clone Z3 with CVBE and 6x EcRE LacZ, β-galactosidase reporter); assay type: cell-based; conditions: 48 h, average of two wells
# T1 construct: expressed in transfected cells
# T1 sequence (P49881 86-606): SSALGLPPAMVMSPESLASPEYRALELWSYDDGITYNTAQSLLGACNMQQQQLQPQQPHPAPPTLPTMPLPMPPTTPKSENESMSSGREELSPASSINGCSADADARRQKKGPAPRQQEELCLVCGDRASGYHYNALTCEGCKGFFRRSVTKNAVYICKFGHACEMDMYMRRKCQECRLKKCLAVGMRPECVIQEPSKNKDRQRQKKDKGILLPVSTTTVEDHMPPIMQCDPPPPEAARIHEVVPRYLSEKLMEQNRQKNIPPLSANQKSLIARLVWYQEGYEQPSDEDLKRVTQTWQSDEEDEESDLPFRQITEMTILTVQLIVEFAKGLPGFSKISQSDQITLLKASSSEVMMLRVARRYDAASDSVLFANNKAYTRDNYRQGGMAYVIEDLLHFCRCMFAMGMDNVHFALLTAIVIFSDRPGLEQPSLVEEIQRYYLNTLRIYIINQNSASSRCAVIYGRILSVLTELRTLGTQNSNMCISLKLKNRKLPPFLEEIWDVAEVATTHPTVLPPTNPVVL
# Gal4DBD/AaEcR (DEF) = biological target: T2, Gal4DBD/AaEcR (DEF) (Aedes aegypti, UniProt P49880); test: cell-based; assay type: cell-based; conditions: 33 μM; 3T3 cells; 48 h; average of two wells
# T2 construct: The wildtype D, E, and F domains from mosquito Aedes aegypti EcR; expressed in transfected cells; host or cells: 3T3 cells
# T2 sequence (P28704 286-520 A311G/G315S/G445S/I449V): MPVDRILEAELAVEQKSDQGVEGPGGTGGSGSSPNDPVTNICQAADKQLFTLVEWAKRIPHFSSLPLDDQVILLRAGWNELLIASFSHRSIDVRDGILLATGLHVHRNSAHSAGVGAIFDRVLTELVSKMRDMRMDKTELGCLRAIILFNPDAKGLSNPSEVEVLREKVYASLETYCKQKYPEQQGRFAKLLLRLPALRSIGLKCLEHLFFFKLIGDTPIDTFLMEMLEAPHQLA
# T2 sequence (P49880 405-776): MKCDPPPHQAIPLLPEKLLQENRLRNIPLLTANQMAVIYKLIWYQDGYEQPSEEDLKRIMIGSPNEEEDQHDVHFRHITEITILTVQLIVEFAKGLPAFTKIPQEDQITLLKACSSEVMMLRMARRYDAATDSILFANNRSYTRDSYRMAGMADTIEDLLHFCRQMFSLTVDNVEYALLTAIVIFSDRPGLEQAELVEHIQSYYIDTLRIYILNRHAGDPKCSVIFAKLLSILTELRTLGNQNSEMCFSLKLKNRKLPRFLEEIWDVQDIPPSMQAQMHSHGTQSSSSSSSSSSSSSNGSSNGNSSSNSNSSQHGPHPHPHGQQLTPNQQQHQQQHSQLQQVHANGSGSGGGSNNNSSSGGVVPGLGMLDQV
# In short: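 Mouse 3T3 cells transiently co-transfected with Gal4DBD/AaEcR (DEF) and pFRLuc (5× GAL4 response element, firefly luciferase reporter). Ligand added in serum medium 4 h after transfection; single-dose testing at 33 μM.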
smiles,measurement,setting,value
C[C@H]1C[C@H](Nc2ccc(F)cc2)c2cc(F)ccc2N1C(=O)c1ccc(F)c(C(F)(F)F)c1 (relative stereo) [Compound I-5],"Fold Induction Average, Z3V1 Assay 33 μM",[1],96 fold
same,"Fold Induction Average, AA_3T3V1 Assay 33 μM",Gal4DBD/AaEcR (DEF),366 fold
